Reference: patent US12012411B2, “Viral replication inhibitors” (Katholieke Universiteit Leuven, priority 2011, dated 2024)

What was measured:
[1] = in vitro; conditions: African green monkey; for CC50 at 4 days: uninfected quiescent Vero-B cells
[2] = system: DENV-2 NGC; test: Antiviral activity against DENV-2 NGC in Vero-B cells (viral RNA load by RT-qPCR); format: cell-based, Dengue virus; conditions: Dengue virus, DENV2, Vero B, DENV-2 in Vero-B cells; inhibition of viral RNA replication by 50% (Table 3)

Row | Structure (SMILES) | CC50 at 4 days [1] | EC50 [2] | CC50 [1]
1 | COc1cccc(NC(C(=O)c2c[nH]c3cccc(C)c23)c2ccccc2)c1 (stereo not shown) [CPD-251] | 14 µM | 0.07 µM | –
2 | COc1cccc(NC(C(=O)c2c[nH]c3c(C)cccc23)c2ccccc2)c1 (stereo not shown) [CPD-224] | > 134 µM | 0.05 µM | –
3 | COc1cccc(NC(C(=O)c2noc3ccccc23)c2ccccc2)c1 (stereo not shown) [CPD-330] | > 139 µM | 4.63 µM | –
4 | COc1cccc(NC(C(=O)c2nn(C)c3c2CN(C)CC3)c2ccccc2)c1 (stereo not shown) [CPD-223] | > 128 µM | 58 µM | –
5 | COc1cccc(NC(C(=O)c2c[nH]c3cc(C#N)ccc23)c2ccccc2)c1 (stereo not shown) [CPD-094] | 11 µM | 0.14 µM | –
6 | COc1cccc(NC(C(=O)c2c[nH]c3ccccc23)c2cccc3cnccc23)c1 (stereo not shown) [CPD-047] | 16 µM | 0.42 µM | –
7 | COc1cccc(NC(C(=O)c2c[nH]c3cc(C(=O)O)ccc23)c2ccccc2)c1 (stereo not shown) [CPD-135] | > 124 µM | 40.7 µM | –
8 | CCOC(=O)CCCOc1cc(NC(C(=O)c2c[nH]c3ccccc23)c2ccccc2)cc(OC)c1 (stereo not shown) [CPD-367] | > 103 µM | 0.04 µM | –
9 | COc1cncc(NC(C(=O)c2c[nH]c3cc(F)ccc23)c2ccccc2)n1 (stereo not shown) [CPD-287] | > 132 µM | 0.44 µM | –
10 | COc1cccc(NC(C(=O)c2c[nH]c3ccccc23)c2cnccn2)c1 (stereo not shown) [CPD-274] | 100 µM | 0.39 µM | –
11 | COc1cccc(NC(C(=O)c2nn(C)c3ccccc23)c2cnc(OC)cn2)c1 (stereo not shown) [CPD-272] | > 124 µM | 0.47 µM | –
12 | COc1cc(NC(C(=O)c2c[nH]c3ccccc23)c2cccnc2)ccn1 (stereo not shown) [CPD-074] | 77 µM | 0.81 µM | –
13 | O=C(c1c[nH]c2ccccc12)C(Nc1ccnc(O)c1)c1ccccc1 (stereo not shown) [CPD-031] | > 145 µM | 50.2 µM | –
14 | O=C(c1c[nH]c2ccccc12)C(Nc1cccc(Cl)c1)c1ccccc1 (stereo not shown) [CPD-006] | 6 µM | 0.75 µM | –
15 | COc1cccc(NC(C(=O)c2c[nH]c3ccncc23)c2ccccc2)c1 (stereo not shown) [CPD-201] | 74 µM | 12.2 µM | –
16 | COc1cc(NC(C(=O)c2c[nH]c3ccccc23)c2ccc(F)cc2)ccn1 (stereo not shown) [CPD-090] | 13 µM | 2.9 µM | –
17 | CCOc1cccc(NC(C(=O)c2c[nH]c3ccccc23)c2ccccc2)c1 (stereo not shown) [CPD-003] | 13 µM | 0.11 µM | –
18 | O=C(c1c[nH]c2ccccc12)C(Nc1cccc(O)c1)c1ccccc1 (stereo not shown) [CPD-366] | 78 µM | 0.26 µM | –
19 | COc1cccc(NC(C(=O)c2c[nH]c3ccccc23)c2cn3cccc(C)c3n2)c1 (stereo not shown) [CPD-088] | > 121 µM | 2.53 µM | –
20 | COc1cccc(NC(C(=O)c2c[nH]c3ccccc23)c2ccc(CO)cc2)c1 (stereo not shown) [CPD-127] | 72 µM | 2.15 µM | –
21 | COc1cccc(NC(C(=O)c2c[nH]c3ccccc23)c2cc(C)no2)c1 (stereo not shown) [CPD-102] | 65 µM | 0.62 µM | –
22 | CC(=O)Nc1cccc(NC(C(=O)c2c[nH]c3ccccc23)c2ccccc2)c1 (stereo not shown) [CPD-174] | 61 µM | 10.1 µM | –
23 | COc1cccc(NC(C(=O)c2c[nH]c3ccccc23)c2cncc(OC)c2)c1 (stereo not shown) [CPD-312] | 69 µM | 4.67 µM | –
24 | COc1cccc(NC(C(=O)c2c[nH]c3cccc(OC)c23)c2ccccc2)c1 (stereo not shown) [CPD-231] | 18 µM | 1.22 µM | –

Row | Structure (SMILES) | CC50 at 4 days [1] | EC50 [2] | CC50 [1]
25 | COc1cccc(NC(C(=O)c2c[nH]c3ccccc23)c2cc(C)n(C)n2)c1 (stereo not shown) [CPD-267] | 79 µM | 1.3 µM | –
26 | COc1cc(NC(C(=O)c2c[nH]c3cc(F)ccc23)c2ccccc2)ccn1 (stereo not shown) [CPD-075] | 102 µM | 1.52 µM | –
27 | CCOC(=O)Cn1cc(C(=O)C(Nc2cccc(OC)c2)c2ccccc2)c2ccccc21 (stereo not shown) [CPD-113] | – | 0.49 µM | > 112 µM
28 | COc1cccc(NC(C(=O)c2c[nH]c3ccccc23)c2cn3c(F)cccc3n2)c1 (stereo not shown) [CPD-109] | 84 µM | 0.53 µM | –
29 | COc1cccc(NC(C(=O)c2c[nH]c3ccccc23)c2ncc[nH]2)c1 (stereo not shown) [CPD-028] | > 144 µM | 135 µM | –
30 | O=C(c1c[nH]c2ccccc12)C(Nc1cncc(OC(F)F)c1)c1ccccc1 (stereo not shown) [CPD-269] | 13 µM | 0.48 µM | –
31 | COc1cccc(NC(C(=O)c2n[nH]c3ccccc23)c2ccccc2)c1 (stereo not shown) [CPD-198] | 16 µM | 0.14 µM | –
32 | COc1cccc(NC(C(=O)c2c[nH]c3ccccc23)c2ccc(OC(C)C)nc2)c1 (stereo not shown) [CPD-268] | 15 µM | 0.46 µM | –
33 | COc1cccc(NC(C(=O)c2c[nH]c3cccnc23)c2ccccc2)c1 (stereo not shown) [CPD-195] | 65 µM | 12.7 µM | –
34 | COc1cccc(NC(C(=O)c2c[nH]c3ccccc23)c2cn3ccc(C)cc3n2)c1 (stereo not shown) [CPD-096] | > 121 µM | 2.9 µM | –
35 | COc1cc(NC(C(=O)c2c[nH]c3ccccc23)c2ccccc2)ccc1C#N (stereo not shown) [CPD-218] | 13 µM | 2.39 µM | –
36 | COc1cccc(NC(C(=O)c2c[nH]c3ccccc23)c2cn3c(n2)COCC3)c1 (stereo not shown) [CPD-080] | > 124 µM | 0.99 µM | –
37 | COc1cccc(NC(C(=O)c2c[nH]c3ccccc23)c2cccc(C#N)c2)c1 (stereo not shown) [CPD-041] | 14 µM | 0.5 µM | –
38 | O=C(c1c[nH]c2ccccc12)C(Nc1ccc2nccnc2c1)c1ccccc1 (stereo not shown) [CPD-050] | 87 µM | 2.4 µM | –
39 | COc1ccc2c(C(=O)C(Nc3ccnc(OC)c3)c3ccccc3)c[nH]c2c1 (stereo not shown) [CPD-076] | 115 µM | 3.77 µM | –
40 | CCc1cccc(NC(C(=O)c2c[nH]c3ccccc23)c2ccccc2)c1 (stereo not shown) [CPD-046] | 17 µM | 0.65 µM | –
41 | CC(C)Oc1cncc(NC(C(=O)c2c[nH]c3ccccc23)c2ccccc2)c1 (stereo not shown) [CPD-247] | 15 µM | 0.42 µM | –
42 | CCc1cccc2c(C(=O)C(Nc3ccc(NC(=O)CN4CCOCC4)cc3)c3ccccc3)c[nH]c12 (stereo not shown) [CPD-186] | 40 µM | 4.35 µM | –
43 | O=C(c1c[nH]c2ccccc12)C(Nc1cccc(-c2cnco2)c1)c1ccccc1 (stereo not shown) [CPD-059] | 16 µM | 1.25 µM | –
44 | COc1cccc(NC(C(=O)c2csc3c2CCN(C)C3)c2ccccc2)c1 (stereo not shown) [CPD-202] | 104 µM | 8.33 µM | –
45 | NC(=O)c1cccc(NC(C(=O)c2c[nH]c3ccccc23)c2ccccc2)c1 (stereo not shown) [CPD-065] | 90 µM | 12.1 µM | –
46 | COc1cncc(NC(C(=O)c2nn(C)c3ccccc23)c2ccccc2)c1 (stereo not shown) [CPD-259] | 14 µM | 0.54 µM | –
47 | COc1cc(NC(C(=O)c2cn(C)c3ccccc23)c2ccccc2)ccn1 (stereo not shown) [CPD-100] | 42 µM | 12 µM | –
48 | COc1cccc(NC(C(=O)c2cnc3ccccn23)c2ccccc2)c1 (stereo not shown) [CPD-196] | > 139 µM | 62.6 µM | –

Row | Structure (SMILES) | CC50 at 4 days [1] | EC50 [2] | CC50 [1]
49 | COc1cc(NC(C(=O)c2c[nH]c3ccc(Cl)cc23)c2ccccc2)ccn1 (stereo not shown) [CPD-099] | 12 µM | 1.76 µM | –
50 | O=C(c1c[nH]c2ccccc12)C(NCc1ccccn1)c1ccccc1 (stereo not shown) [CPD-032] | > 146 µM | 55.5 µM | –
51 | COc1cccc(NC(C(=O)c2c[nH]c3ccccc23)c2cnn(C)c2)c1 (stereo not shown) [CPD-042] | > 138 µM | 12.5 µM | –
52 | COc1cc(NC(C(=O)c2c[nH]c3ccccc23)c2ccccc2)cnc1N(C)C (stereo not shown) [CPD-257] | 17 µM | 0.45 µM | –
53 | CNc1ncc(NC(C(=O)c2c[nH]c3ccccc23)c2ccccc2)cc1OC (stereo not shown) [CPD-261] | 15 µM | 0.39 µM | –
54 | COc1cccc(NC(C(=O)c2cnn3ccccc23)c2ccccc2)c1 (stereo not shown) [CPD-197] | > 139 µM | 3.3 µM | –
55 | COc1cc(NC(C(=O)c2c[nH]c3ccccc23)c2ccc(C)cc2)cc(OCCO)c1 (stereo not shown) [CPD-369] | 11 µM | 0.01 µM | –
56 | COc1cccc(NC(C(=O)c2c[nH]c3ccccc23)c2ccc(CN(C)C)cc2)c1 (stereo not shown) [CPD-124] | 3 µM | 0.56 µM | –
57 | COc1cncc(NC(C(=O)c2c[nH]c3ccccc23)c2cc3ccccn3n2)n1 (stereo not shown) [CPD-290] | > 125 µM | 0.88 µM | –
58 | O=C(c1c[nH]c2ccccc12)C(Nc1cccc(CO)c1)c1ccccc1 (stereo not shown) [CPD-179] | 135 µM | 5.3 µM | –
59 | O=C(c1c[nH]c2ccccc12)C(Nc1cccc(C(F)(F)F)c1)c1ccccc1 (stereo not shown) [CPD-009] | 4 µM | 0.66 µM | –
60 | COc1ccc(C(Nc2cncc(OC)n2)C(=O)c2c[nH]c3ccccc23)cn1 (stereo not shown) [CPD-284] | 74 µM | 0.62 µM | –
61 | O=C(c1c[nH]c2ccccc12)C(Nc1cccc(-n2cncn2)c1)c1ccccc1 (stereo not shown) [CPD-058] | 64 µM | 2.85 µM | –
62 | COc1cccc(NC(C(=O)c2cccc3[nH]ccc23)c2ccccc2)c1 (stereo not shown) [CPD-302] | 15 µM | 0.65 µM | –
63 | COc1cccc(N(C)C(C(=O)c2c[nH]c3ccccc23)c2ccccc2)c1 (stereo not shown) [CPD-018] | 19 µM | 0.37 µM | –
64 | COc1cc(NC(C(=O)c2c[nH]c3ccccc23)c2ccc3[nH]ccc3c2)ccn1 (stereo not shown) [CPD-097] | 12 µM | 2.32 µM | –
65 | COc1cc(NC(C(=O)c2c[nH]c3c(Cl)cccc23)c2ccccc2)ccn1 (stereo not shown) [CPD-101] | 11 µM | 4.9 µM | –
66 | COc1cccc(NC(C(=O)c2c[nH]c3ccc(CN(C)C)cc23)c2ccccc2)c1 (stereo not shown) [CPD-228] | 13 µM | 1.62 µM | –
67 | COc1cc(OC)nc(NC(C(=O)c2c[nH]c3ccccc23)c2ccccc2)n1 (stereo not shown) [CPD-347] | 6 µM | 0.98 µM | –
68 | O=C(c1c[nH]c2ccccc12)C(NC1CCSc2ccccc21)c1ccccc1 (stereo not shown) [CPD-191] | 13 µM | 2.58 µM | –
69 | O=C(c1c[nH]c2ccccc12)C(Nc1ccc(F)c(F)c1)c1ccccc1 (stereo not shown) [CPD-007] | 5 µM | 2.53 µM | –
70 | COc1cccc(NC(C(=O)c2nn(C)c3c2CNCC3)c2ccccc2)c1 (stereo not shown) [CPD-221] | 80 µM | 29.3 µM | –
71 | CCc1cncc(NC(C(=O)c2c[nH]c3ccccc23)c2ccccc2)c1 (stereo not shown) [CPD-248] | 15 µM | 0.56 µM | –
